# Legend:
# [1] = tested on: H1975 and H1975-DR lung cancer xenografts; assay: microPET competitive inhibition of tracer uptake by unlabeled Dasatinib; assay type: in vivo, SCID mouse
# M07e cells = assay: Cellular proliferation, [3H]thymidine uptake, Kit ligand dependent growth; assay type: cell-based; settings: Homo sapiens, M-07e, read-out: IC50, M07e cells proliferation
# Protocol: The immortalized human hematopoietic Philadelphia chromosome-positive cytokine independent R10(−) M07e^p210 cell line (46) was maintained in Iscove's modified Dulbecco's medium (Life Technologies, Inc., Grand Island, N.Y.) containing 10% FCS (Hyclone, Logan, Utah). The parental M07e megakaryoblastic cell line was a kind gift of Brian Druker and was maintained in the presence of 50 ng/mL kit ligand (SCF) as described (46-47) K562 was obtained from the ATCC. K562 was maintained in suspension in 90% RPMI 1640 medium supplemented with 10% FBS, 2 mM L-glutamine, 10 mM HEPES, 1 mM sodium pyruvate, 1.5 g/L sodium bicarbonate, 4.5 g/L […], 10% FBS, 100 IU/mL penicillin and 100 μg/ml streptomycin. Tumor cell cultures were maintained in a humidified atmosphere with 5% CO2 at 37° C. (NuAire).
# . Data points for all assays were obtained in triplicate, and background incorporation from cell-free wells was determined and subtracted from all data points. The data was analyzed using a non-linear regression fit to a sigmoidal dose-response curve using Prism 4 (GraphPad Software, Inc).
# [2] = oral dasatinib therapy; cited from earlier work
# EphB4 = biological target: T1, EphB4 (Homo sapiens, UniProt P54760); assay: QuickScout ELISA kinase panel; assay type: biochemical
# T1 construct: purchased Carna Biosciences (QuickScout service)
# T1 sequence (P54760 16-987): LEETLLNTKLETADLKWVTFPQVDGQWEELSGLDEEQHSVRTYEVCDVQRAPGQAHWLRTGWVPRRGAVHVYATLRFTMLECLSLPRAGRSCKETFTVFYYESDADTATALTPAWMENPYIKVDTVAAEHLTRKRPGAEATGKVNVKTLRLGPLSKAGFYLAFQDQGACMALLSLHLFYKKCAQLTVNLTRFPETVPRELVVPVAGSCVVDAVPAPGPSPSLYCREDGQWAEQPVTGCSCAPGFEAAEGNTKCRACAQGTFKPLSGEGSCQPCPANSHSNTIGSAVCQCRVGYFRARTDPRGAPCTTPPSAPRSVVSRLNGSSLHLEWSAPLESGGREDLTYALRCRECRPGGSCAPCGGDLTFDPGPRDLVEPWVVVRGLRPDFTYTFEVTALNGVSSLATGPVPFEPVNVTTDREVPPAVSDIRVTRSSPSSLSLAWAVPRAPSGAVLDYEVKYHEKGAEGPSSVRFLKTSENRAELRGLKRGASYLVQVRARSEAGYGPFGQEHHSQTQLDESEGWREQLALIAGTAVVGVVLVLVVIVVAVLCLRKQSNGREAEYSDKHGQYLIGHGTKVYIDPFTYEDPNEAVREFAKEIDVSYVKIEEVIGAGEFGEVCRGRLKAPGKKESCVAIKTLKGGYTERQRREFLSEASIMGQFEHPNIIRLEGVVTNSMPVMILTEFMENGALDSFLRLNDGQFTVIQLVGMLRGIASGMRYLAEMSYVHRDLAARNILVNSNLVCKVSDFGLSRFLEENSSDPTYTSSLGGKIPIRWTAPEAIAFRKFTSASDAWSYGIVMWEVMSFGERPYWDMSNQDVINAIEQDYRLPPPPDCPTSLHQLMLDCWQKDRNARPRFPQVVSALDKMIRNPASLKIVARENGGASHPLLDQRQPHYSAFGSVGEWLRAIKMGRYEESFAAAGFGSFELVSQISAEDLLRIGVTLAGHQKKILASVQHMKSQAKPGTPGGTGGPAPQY
# Excerpt: (§1) . […] An ELISA-based assay was used in which the phosphorylation of an oligopeptide substrate was detected by an HRP-conjugated anti-p-Tyr (PY20) probe. […]. The data appears in Table 2 in Example 3.
# TEC = biological target: T2, TEC (Homo sapiens, UniProt P42680); assay: QuickScout ELISA kinase panel; assay type: biochemical
# T2 construct: purchased Carna Biosciences (Kobe, Japan), QuickScout service
# T2 sequence (P42680 1-631): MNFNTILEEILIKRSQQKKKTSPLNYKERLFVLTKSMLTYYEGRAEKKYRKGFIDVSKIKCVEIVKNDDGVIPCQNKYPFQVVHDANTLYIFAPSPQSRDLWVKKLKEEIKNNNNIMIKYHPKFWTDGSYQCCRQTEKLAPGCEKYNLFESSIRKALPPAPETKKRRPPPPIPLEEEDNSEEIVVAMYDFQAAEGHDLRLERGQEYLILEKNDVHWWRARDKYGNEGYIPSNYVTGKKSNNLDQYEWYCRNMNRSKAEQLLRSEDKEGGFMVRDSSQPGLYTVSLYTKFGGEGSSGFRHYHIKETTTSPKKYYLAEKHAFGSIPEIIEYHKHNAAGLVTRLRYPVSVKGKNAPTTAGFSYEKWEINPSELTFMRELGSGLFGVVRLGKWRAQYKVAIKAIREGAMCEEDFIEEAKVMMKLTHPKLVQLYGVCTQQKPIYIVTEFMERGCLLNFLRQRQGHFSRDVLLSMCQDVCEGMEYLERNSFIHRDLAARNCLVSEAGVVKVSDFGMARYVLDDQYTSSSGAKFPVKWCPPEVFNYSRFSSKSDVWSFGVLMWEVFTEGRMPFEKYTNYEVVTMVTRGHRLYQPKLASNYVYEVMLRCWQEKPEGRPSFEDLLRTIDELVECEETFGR
# Excerpt: as §1
# CSK = biological target: T3, CSK (Homo sapiens, UniProt P41240); assay: QuickScout ELISA kinase panel; assay type: biochemical
# T3 construct: purchased Carna Biosciences (QuickScout service)
# T3 sequence (P41240 whole entry): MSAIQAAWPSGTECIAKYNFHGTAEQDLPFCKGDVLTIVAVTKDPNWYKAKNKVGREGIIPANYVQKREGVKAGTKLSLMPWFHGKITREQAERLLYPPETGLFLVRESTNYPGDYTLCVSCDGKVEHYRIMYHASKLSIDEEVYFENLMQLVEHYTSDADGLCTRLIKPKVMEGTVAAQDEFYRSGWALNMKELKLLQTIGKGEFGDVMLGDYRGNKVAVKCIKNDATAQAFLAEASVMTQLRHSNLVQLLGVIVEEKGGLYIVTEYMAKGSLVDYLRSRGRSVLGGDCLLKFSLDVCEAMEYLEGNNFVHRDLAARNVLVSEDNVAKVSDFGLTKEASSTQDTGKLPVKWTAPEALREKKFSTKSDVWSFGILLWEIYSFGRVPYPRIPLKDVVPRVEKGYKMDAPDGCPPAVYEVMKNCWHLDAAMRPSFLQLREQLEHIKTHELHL
# Excerpt: as §1
# JAK3 = biological target: T4, JAK3 (Homo sapiens, UniProt P52333); assay: QuickScout ELISA kinase panel; assay type: biochemical
# T4 construct: purchased Carna Biosciences (QuickScout service)
# Excerpt: as §1
# MET = biological target: T5, MET (Homo sapiens, UniProt P08581); assay: QuickScout ELISA kinase panel; assay type: biochemical
# T5 construct: purchased Carna Biosciences (QuickScout service)
# Excerpt: as §1
# ACK = biological target: T6, ACK (Homo sapiens, UniProt Q07912); assay: QuickScout ELISA kinase panel; assay type: biochemical
# T6 construct: purchased Carna Biosciences (QuickScout service)
# T6 sequence (Q07912 whole entry): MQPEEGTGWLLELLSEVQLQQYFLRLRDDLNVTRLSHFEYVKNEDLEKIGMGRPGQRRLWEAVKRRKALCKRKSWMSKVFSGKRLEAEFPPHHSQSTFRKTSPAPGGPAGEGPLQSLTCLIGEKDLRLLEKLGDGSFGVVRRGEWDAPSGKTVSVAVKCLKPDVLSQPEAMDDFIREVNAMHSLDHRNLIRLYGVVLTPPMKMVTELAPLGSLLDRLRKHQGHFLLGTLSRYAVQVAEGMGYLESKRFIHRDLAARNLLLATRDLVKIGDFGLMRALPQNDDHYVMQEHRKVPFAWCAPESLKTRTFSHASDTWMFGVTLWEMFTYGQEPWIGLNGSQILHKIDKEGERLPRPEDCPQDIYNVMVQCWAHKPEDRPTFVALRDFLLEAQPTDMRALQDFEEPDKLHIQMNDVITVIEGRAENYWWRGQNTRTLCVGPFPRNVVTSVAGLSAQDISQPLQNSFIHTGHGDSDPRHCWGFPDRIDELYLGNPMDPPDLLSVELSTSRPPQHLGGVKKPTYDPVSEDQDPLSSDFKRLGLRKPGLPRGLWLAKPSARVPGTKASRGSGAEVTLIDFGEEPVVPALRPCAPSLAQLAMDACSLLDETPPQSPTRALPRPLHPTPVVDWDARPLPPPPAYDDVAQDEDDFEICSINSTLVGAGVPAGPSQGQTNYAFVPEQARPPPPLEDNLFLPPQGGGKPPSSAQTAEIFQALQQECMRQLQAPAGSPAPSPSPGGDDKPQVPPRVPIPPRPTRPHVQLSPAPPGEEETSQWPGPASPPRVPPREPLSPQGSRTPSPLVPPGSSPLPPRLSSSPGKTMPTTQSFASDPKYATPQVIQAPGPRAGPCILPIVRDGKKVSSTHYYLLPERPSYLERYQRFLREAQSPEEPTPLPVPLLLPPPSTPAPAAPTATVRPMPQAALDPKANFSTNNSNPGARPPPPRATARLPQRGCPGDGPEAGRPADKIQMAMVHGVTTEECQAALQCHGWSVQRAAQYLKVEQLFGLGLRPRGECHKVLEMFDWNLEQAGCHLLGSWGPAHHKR
# Excerpt: as §1
# TYRO3 = biological target: T7, TYRO3 (Homo sapiens, UniProt Q06418); assay: QuickScout ELISA kinase panel; assay type: biochemical
# T7 construct: purchased Carna Biosciences (QuickScout service)
# Excerpt: as §1
# FLT3 = biological target: T8, FLT3 (Homo sapiens, UniProt P36888); assay: QuickScout ELISA kinase panel; assay type: biochemical
# T8 construct: purchased Carna Biosciences (Kobe, Japan), QuickScout service
# Excerpt: as §1
# EphA2 = biological target: T9, EphA2 (Homo sapiens, UniProt P29317); assay: QuickScout ELISA kinase panel; assay type: biochemical
# T9 construct: purchased Carna Biosciences (QuickScout service)
# T9 sequence (P29317 24-976): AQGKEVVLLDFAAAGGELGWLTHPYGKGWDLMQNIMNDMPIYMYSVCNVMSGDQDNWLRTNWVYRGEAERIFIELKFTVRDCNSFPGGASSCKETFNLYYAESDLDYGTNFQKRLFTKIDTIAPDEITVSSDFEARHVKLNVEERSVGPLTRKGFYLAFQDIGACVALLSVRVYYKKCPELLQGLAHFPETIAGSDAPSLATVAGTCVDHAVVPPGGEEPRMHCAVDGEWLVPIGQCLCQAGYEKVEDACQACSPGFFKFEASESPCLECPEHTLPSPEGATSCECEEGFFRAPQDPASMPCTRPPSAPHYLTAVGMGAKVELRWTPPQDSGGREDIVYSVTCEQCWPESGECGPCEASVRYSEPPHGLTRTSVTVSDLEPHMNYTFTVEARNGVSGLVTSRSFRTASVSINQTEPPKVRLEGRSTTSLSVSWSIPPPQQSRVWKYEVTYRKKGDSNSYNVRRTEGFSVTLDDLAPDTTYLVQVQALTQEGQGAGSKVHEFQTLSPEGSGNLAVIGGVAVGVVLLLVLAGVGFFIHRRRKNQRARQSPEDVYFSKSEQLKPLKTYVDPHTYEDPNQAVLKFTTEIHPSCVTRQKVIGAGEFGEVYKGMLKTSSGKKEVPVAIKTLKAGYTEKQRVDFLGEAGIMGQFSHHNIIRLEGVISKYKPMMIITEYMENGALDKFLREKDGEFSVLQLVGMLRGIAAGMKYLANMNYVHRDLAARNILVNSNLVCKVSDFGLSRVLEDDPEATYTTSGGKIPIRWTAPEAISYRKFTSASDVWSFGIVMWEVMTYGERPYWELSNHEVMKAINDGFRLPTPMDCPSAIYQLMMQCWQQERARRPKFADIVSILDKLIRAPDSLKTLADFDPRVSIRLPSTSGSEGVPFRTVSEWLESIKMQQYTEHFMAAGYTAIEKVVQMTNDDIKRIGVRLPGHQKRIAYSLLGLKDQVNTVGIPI
# Excerpt: as §1
# PDGFR— = biological target: T10, PDGFR— (Homo sapiens, UniProt P16234); assay: QuickScout ELISA kinase panel; assay type: biochemical
# T10 construct: purchased Carna Biosciences (Kobe, Japan), QuickScout service
# T10 sequence (P16234 550-1089 limits assumed): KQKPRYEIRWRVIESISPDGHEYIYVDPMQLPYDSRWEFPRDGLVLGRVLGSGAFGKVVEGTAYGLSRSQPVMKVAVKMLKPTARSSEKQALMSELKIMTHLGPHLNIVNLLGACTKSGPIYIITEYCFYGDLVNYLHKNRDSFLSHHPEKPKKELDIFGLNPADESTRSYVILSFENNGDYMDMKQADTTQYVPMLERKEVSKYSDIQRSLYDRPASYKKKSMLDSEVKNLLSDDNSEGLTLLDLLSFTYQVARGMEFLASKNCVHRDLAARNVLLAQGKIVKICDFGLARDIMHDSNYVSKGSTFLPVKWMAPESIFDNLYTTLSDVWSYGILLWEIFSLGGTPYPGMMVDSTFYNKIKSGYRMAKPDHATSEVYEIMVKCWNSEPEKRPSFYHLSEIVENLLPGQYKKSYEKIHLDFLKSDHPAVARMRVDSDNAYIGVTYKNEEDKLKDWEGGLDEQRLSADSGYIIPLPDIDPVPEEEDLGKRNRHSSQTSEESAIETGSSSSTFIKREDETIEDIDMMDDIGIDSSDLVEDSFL
# Excerpt: as §1
# SRC = SRC (Homo sapiens, UniProt P12931); assay: biochemical
# SRC, sequence (P12931 whole entry): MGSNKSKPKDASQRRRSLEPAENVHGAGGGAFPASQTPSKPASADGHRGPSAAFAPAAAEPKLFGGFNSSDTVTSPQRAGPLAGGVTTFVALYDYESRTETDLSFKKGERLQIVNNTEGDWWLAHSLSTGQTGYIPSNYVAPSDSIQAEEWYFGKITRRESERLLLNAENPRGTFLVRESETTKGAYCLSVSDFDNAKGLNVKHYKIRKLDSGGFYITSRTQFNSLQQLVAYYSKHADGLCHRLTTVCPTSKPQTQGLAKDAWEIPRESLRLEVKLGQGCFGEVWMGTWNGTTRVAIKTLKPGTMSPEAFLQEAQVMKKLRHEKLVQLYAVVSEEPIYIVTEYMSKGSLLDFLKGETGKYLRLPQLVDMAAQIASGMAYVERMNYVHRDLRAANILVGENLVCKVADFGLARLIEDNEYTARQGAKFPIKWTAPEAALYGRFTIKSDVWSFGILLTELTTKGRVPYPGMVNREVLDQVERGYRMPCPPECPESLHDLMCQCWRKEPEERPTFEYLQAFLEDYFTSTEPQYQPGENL
# Excerpt: (§2) An ELISA-based assay was used in which the phosphorylation of an oligopeptide substrate was detected by an HRP-conjugated anti-p-Tyr (PY20) probe.
# ABL = ABL (Homo sapiens, UniProt P00519); assay: QuickScout ELISA kinase panel; assay type: biochemical; design: purchased Carna Biosciences (QuickScout service); settings: Table 3
# Excerpt: as §2
# EGFR = biological target: T11, EGFR (Homo sapiens, UniProt P00533); assay: QuickScout ELISA kinase panel; assay type: biochemical; settings: Table 3
# T11 construct: purchased Carna Biosciences (QuickScout service)
# Excerpt: as §2
# KIT = biological target: T12, KIT (Homo sapiens, UniProt P10721); assay: QuickScout ELISA kinase panel; assay type: biochemical; settings: Table 3
# T12 construct: purchased Carna Biosciences (Kobe, Japan), QuickScout service
# Excerpt: as §2
# FGFR1 = biological target: T13, FGFR1 (Homo sapiens, UniProt P11362); assay: QuickScout ELISA kinase panel; assay type: biochemical; settings: Table 3
# T13 construct: purchased Carna Biosciences (QuickScout service)
# Excerpt: as §2
# [3] = tested on: K562 (CML) tumor xenografts; assay: microPET imaging of K562 xenograft; assay type: in vivo, athymic nu/nu mice
# Protocol: All animal studies were carried out within the framework of an institutional IACUC approved protocol (No. 86-02-020). Athymic nu/nu mice (National Cancer Institute, Bethesda, Md.) were inoculated subcutaneously onto the right shoulder with 1×10^7 K562 cells mixed with Matrigel (BD Biosciences, San Jose, Calif.). K562 is a chronic myelogenous leukemia cell line cultured with IMDM (Iscove's modified Dulbecco's medium; prepared in-house) containing 4 mM L-glutamine, 1.5 g/L sodium bicarbonate, and 10% fetal bovine serum.
# Three weeks following tumor inoculation, PET images of mice were obtained using FOCUS 120 microPET™ scanner (Siemens Preclinical Solutions, Knoxyille, Tenn.) with [^18F]-5. Mice were injected intravenously (via tail vein) with 14±1 MBq (375±25 μCi) of [^18F]-5 and imaged 60 minutes later under 2% (at 1 L/min) isoflurane anesthesia (Forane, Baxter Healthcare, Deerfield, Ill.). Image acquisition time was 15 min (t=60 to 75 min) using a 250-750 keV energy window and a 6 nsec timing window. List-mode data were sorted into sinograms by Fourier re-binning and reconstructed by filter back-projection without attenuation correction. Count data in the reconstructed images were converted to activity concentration (i.e. % of the injected dose per gram (% ID/gm)) using a system calibration factor determined using a ^18F-filled mouse-sized phantom. Visualization and analyses of microPET images were carried out using AsiPRO™ software (Siemens Preclinical Solutions, Knoxyille, Tenn.).
# In vivo results have been obtained in athymic mice bearing subcutaneous K562 (CML) tumor xenografts in the right shoulder. [^18F]-5 (14±1 MBq, 375±25 μCi) was injected through the tail vein and the subjects were imaged in a microPET scanner. […] Tracer activity was evident within the tumor xenograft (white arrow) and was determined to be 1.1% of the injected dose by ROI (region of interest) analysis. […] The transaxial image was taken at the level of the known palpable tumor as shown in the coronal section (broken line). The intensity of the radiotracer activity is color-graded as depicted by the colored scale.
# [4] = In vivo metabolism in mice (blood/plasma radio-HPLC); settings: for Peak 3 [18F]-5 (16.9 min) % Radioactivity, parent: plasma
# Protocol: Mice were injected i.v. with [^18F]-5 in the tail vein and sacrificed using carbon dioxide at 30, 60 and 120 min post injection. Each group contained three mice. Immediately after sacrifice, about 0.5 ml of blood was collected by cardiac puncture and deposited in a 1.5 ml Eppendorf tube. Disodium EDTA (2.5 mg) was used as anticoagulant. The samples were then maintained at 4° C. for subsequent procedures. The total radioactivity in each total blood sample was counted. The samples were then centrifuged at 4° C. at 2200×g. Radioactivity of the serum and pellet measured and about 50% of the total radioactivity was retained in the pellet. The serum was transferred to a 1.5 ml Eppendorf tube containing about […] of 60% acetonitrile in water and centrifuged again to precipitate any residual proteins. The supernatant was analyzed using HPLC and examined for metabolites. HPLC was carried out on a C-18 Shimadzu 4.6×250 mm HPLC column and eluted under gradient conditions 80% A (pH 5.5 50 mM NaOAc):20% B (CH3CN) to 20% A:80% B at 1 ml/min. Radioactivity was detected using Packard Radiomatic FLO-One/beta detector equipped with a PET flow cell containing BGO (bismuthgermanate) windows.
compound,measurement,setting,value
"Cc1nc(Nc2ncc(C(=O)Nc3c(C)cccc3Cl)s2)cc(N2CCN(CCO)CC2)n1.O [Dasatinib, N-(2-chloro-6-methylphenyl)-2-[[6-[4-(2-hydroxyethyl)-1-piperazinyl]-2-methyl-4-pyrimidinyl]amino]-5-thiazole carboxamide monohydrate, reference compound]",effect of unlabeled Dasatinib on [18F]-5 uptake,[1]; Dasatinib 30 mg/kg IP,competitive inhibition of tracer uptake in the tumors and organs
same,IC50,M07e cells,1.2 ± 0.8 nM
same,patients with severe myelosuppression,[2],> 50%
"CN[C@@H]1C[C@H]2O[C@@](C)([C@@H]1OC)n1c3ccccc3c3c4c(c5c6ccccc6n2c5c31)C(=O)NC4 [Staurosporine, reference compound]",inhibition at 10 µM,"EphB4; read-out: % Inhibition of Kinase Activity, EphB4",94.1%
same,inhibition at 0.3 µM,"TEC; read-out: % Inhibition of Kinase Activity, TEC",92.5%
same,inhibition at 0.3 µM,"CSK; read-out: % Inhibition of Kinase Activity, CSK",89.3%
same,inhibition at 0.003 µM,JAK3,95.3%
same,inhibition at 0.3 µM,MET,90%
same,inhibition at 0.03 µM,"ACK; read-out: % Inhibition of Kinase Activity, ACK",96.4%
same,inhibition at 1 µM,TYRO3,95.3%
same,inhibition at 0.003 µM,FLT3,96.4%
same,inhibition at 10 µM,"EphA2; read-out: % Inhibition of Kinase Activity, EphA2",92.6%
same,inhibition at 0.003 µM,"PDGFR—; read-out: % Inhibition of Kinase Activity, PDGFR—",88.4%
same,inhibition at 3 µM,"SRC; read-out: % Inhibition of Kinase Activity, SRC, Staurosporine at 3000 nM",89.8%
Cc1nc(Nc2ncc(C(=O)Nc3c(C)cccc3Cl)s2)cc(N2CCN(CC[18F])CC2)n1 [[^18F]-5],tumor uptake of tracer,"[1]; H1975 right, H1975-DR left shoulder, before Dasatinib",tumor uptake is evident bilaterally
same,EC50,ABL,0.6 nM
same,EC50,EGFR,270 nM
same,EC50,KIT,1.3 nM
same,EC50,FGFR1,390 nM
same,tracer activity within the tumor xenograft by ROI analysis,"[3]; 60 minutes after i.v. injection, one representative mouse",1.1 % of the injected dose
same,route of clearance,[3]; microPET 60-75 min,cleared via the hepatobiliary route predominantly
same,uptake in bone,[3]; microPET 60-75 min,no significant uptake
same,K562 tumor uptake in mice,"[3]; mouse, in vivo",significant K562 tumor uptake
same,EC50,EphB4; Table 3,3.1 nM
same,EC50,TEC; Table 3,1.9 nM
same,EC50,CSK; Table 3,5 nM
same,EC50,ACK; Table 3,20 nM
same,EC50,EphA2; Table 3,1.9 nM
same,EC50,PDGFR—; Table 3,16 nM
same,EC50,SRC,2.6 nM
same,total blood radioactivity retained in the pellet,[4]; mouse blood centrifuged at 2200 x g after i.v. injection,about 50%
same,"Peak 3 [18F]-5 (16.9 min) % Radioactivity, parent",[4]; 30 min post injection,31 ± 11%
same,"Peak 3 [18F]-5 (16.9 min) % Radioactivity, parent",[4]; 60 min post injection,9 ± 3%
same,"Peak 3 [18F]-5 (16.9 min) % Radioactivity, parent","[4]; 120 min post injection, one trial only",8%
same,metabolism in plasma over time course,"[4]; two-hour time course, HPLC of plasma",metabolized significantly
